Tested on: polypeptide according to the invention (membrane receptor for steroids and sterols)
Experiment: Receptor binding studies (binding assay) with radiolabeled steroids and sterols
Set-up: species or system human
Settings: qualitative statement in the description; no value given
Protocol: In addition, the invention relates to a test system for identifying effectors of a polypeptide according to the invention, whereby a polypeptide according to the invention is incubated as a complete or partial sequence thereof with a steroid, a steroid analog or a sterol, and the amount of bound steroid, steroid analog or sterol is detected. As a partial sequence, e.g., the area that comprises the “leucine-rich repeats” and the island domain or shorter strands thereof can be used. The binding of the effectors can be measured, e.g., by labeled substances being used and the labeling (e.g., radioactivity or fluorescence) being measured. A displacement reaction can also be measured, however, by a binding labeled steroid being used and the displacement of the labeling by the receptor being measured after the addition of the substances to be tested. […]
Crude extracts and cytosol fractions (0.04 ml) were incubated at 4° C. for 2 hours with 10 μl of radioactive steroid or sterol (concentration in the batch 10 nmol/l) either in the absence or in the presence of a 100× excess of a non-radioactive substance (for determining the unspecific bond). […] After centrifuging (5 minutes, 15,000 g), an aliquot of the supernatant was removed, and the radioactivity was determined by means of a scintillation counter. […]

Compound: CC(C)=CCC[C@@H](C)[C@H]1CC=C2C3=C(CC[C@@]21C)[C@@]1(C)CC[C@H](O)C(C)(C)[C@@H]1CC3 [FF-MAS]
- binding of the substance by the polypeptide according to the invention: binds

Reference: patent US20030045699A1, “Membrane receptors for steroids and sterols” (priority 2001, published 2003)
